Paper PMC10287183 (Antiviral Research, 2023)

What was measured:
in vitro [1] = conditions: human
in vitro [2] = conditions: human; remark: listed apart in the source
SARS-CoV-2 Omicron = assay: microbe, parasite or virus in culture; assay type: cell-based; conditions: Severe acute respiratory syndrome coronavirus 2, read-out: EC90 (mean ± SD)
CatB and CatL = assay: Z-Phe-Arg-AMC substrate degradation in whole cell lysates with CA-074; assay type: biochemical; conditions: CA-074 10 μM

Row | SMILES | CC50 (in vitro [1]) [µM] | CC50 (in vitro [2]) [µM] | EC90 (SARS-CoV-2 Omicron) [µM] | Z-Phe-Arg-AMC substrate degradation (CatB and CatL; Calu-3 whole cell lysate) | Z-Phe-Arg-AMC substrate degradation (CatB and CatL; Huh7-hACE2 whole cell lysate) | Z-Phe-Arg-AMC substrate degradation (CatB and CatL; Vero E6 whole cell lysate)
1 | O=[N+]([O-])c1ccc(O)c2ncccc12 [Nitroxoline, nitroxoline] | > 100 | > 100 | 6.4 ± 0.6 | – | – | –
2 | CCCNC(=O)[C@H]1O[C@@H]1C(=O)N[C@H](C(=O)N1CCC[C@H]1C(=O)O)[C@@H](C)CC [CA-074] | – | – | – | almost completely abolished | almost completely abolished | did not reduce substrate degradation
3 | CCN(CCO)CCCC(C)Nc1ccnc2cc(Cl)ccc12 (stereo not shown) [Hydroxychloroquin, Hydroxychloroquine] | – | – | 7.7 ± 1.2 | – | – | –
